In PMC11879040, “Advancing systemic toxicity risk assessment: Evaluation of a NAM-based toolbox approach” (Toxicological Sciences, 2024):
Read-outs that look alike come from different tables or passages of the source.

Tests used:
[1] = target: cGMP-inhibited 3',5'-cyclic phosphodiesterase A, PDE3A (h) (Homo sapiens, UniProt Q14432); assay: IPP PDE3A enzymatic activity; format: biochemical; conditions: control milrinone
[2] = target: Histamine H2 receptor, HRH2 (h) (Homo sapiens, UniProt P25021); assay: IPP HRH2 binding (antagonist radioligand); conditions: control cimetidine
[3] = target: Cannabinoid receptor 2, CNR2 (h) (Homo sapiens, UniProt P34972); format: binding; conditions: IPP screening at 10 uM; control WIN 55212-2
Cannabinoid receptor 2, CNR2 (h), sequence (P34972 whole entry): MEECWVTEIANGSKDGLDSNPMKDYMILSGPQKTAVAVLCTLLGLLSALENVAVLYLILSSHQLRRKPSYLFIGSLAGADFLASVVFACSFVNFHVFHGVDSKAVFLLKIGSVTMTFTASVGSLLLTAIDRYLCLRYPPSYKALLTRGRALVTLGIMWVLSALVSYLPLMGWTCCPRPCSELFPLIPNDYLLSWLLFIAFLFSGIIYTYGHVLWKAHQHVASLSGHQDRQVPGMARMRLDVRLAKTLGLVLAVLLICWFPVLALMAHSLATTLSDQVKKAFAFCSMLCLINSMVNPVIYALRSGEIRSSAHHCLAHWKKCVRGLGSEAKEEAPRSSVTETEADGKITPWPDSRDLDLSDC

[4] = target: Tyrosine-protein kinase Lck, LCK (h) (Homo sapiens, UniProt P06239); assay: IPP LCK enzymatic activity; format: biochemical; conditions: IPP screening at 10 uM; control staurosporine
Tyrosine-protein kinase Lck, LCK (h), sequence (P06239 whole entry): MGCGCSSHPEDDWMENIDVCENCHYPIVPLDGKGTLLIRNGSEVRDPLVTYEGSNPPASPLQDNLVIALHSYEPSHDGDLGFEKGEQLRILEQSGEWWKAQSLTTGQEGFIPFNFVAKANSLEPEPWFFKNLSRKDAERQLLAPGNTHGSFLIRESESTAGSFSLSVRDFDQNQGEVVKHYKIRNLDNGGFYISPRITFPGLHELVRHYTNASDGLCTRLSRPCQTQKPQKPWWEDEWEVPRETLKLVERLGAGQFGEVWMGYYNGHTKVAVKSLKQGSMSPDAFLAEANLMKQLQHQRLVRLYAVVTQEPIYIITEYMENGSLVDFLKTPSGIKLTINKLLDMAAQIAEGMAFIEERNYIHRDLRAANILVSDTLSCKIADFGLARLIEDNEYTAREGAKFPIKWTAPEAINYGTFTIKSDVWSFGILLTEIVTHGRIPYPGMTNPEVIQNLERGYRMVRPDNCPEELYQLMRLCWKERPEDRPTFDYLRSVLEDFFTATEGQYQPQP

[5] = target: T1, Muscarinic acetylcholine receptor M3, CHRM3 (h) (Homo sapiens, UniProt P20309); format: binding; conditions: 10 uM; ligand/control 4-DAMP
T1 construct: purchased Eurofins Cerep (SafetyScreen44-based IPP panel)
T1 sequence (P20309 whole entry): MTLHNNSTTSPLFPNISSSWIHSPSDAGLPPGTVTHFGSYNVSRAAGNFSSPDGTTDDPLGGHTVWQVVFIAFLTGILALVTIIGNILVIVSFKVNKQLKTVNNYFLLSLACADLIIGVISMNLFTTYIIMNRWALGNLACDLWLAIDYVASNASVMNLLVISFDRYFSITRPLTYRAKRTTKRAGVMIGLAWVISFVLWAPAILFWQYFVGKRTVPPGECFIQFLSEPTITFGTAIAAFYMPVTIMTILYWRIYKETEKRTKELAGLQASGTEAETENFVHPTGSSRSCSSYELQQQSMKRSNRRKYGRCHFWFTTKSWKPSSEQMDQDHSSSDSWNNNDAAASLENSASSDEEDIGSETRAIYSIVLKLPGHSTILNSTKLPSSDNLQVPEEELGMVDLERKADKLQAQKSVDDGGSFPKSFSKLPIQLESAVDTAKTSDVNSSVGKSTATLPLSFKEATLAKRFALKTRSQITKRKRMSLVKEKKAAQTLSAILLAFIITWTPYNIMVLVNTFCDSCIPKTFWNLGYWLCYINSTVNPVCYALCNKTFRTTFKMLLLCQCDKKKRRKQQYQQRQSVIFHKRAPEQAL

[6] = target: T2, Estrogen receptor, ER1 (h) (Homo sapiens, UniProt P03372); assay: IPP ER1 coactivator recruitment (agonist); format: biochemical; conditions: estriol
T2 construct: purchased Eurofins Cerep (SafetyScreen44-based IPP panel)
T2 sequence (P03372 1-595): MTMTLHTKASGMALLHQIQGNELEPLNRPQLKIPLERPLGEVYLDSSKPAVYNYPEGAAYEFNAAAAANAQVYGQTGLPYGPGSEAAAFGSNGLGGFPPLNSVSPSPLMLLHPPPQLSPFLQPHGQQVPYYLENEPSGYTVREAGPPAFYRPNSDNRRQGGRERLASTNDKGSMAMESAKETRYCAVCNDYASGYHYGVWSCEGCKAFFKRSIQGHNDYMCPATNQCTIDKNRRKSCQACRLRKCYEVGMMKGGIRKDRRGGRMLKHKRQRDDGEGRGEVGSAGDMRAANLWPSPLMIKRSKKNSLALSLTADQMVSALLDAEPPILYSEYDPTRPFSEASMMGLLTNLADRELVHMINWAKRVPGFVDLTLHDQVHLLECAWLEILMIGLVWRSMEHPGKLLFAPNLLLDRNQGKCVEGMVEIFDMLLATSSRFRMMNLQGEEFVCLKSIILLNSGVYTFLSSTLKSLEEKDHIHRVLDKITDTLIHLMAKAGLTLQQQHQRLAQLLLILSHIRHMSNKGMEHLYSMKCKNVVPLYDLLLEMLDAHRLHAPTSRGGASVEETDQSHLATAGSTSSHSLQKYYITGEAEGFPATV

[7] = target: Angiotensin-converting enzyme 2, ACE2 (h) (Homo sapiens, UniProt Q9BYF1); assay: IPP ACE2 enzymatic activity; format: biochemical; conditions: 10 uM; control captopril
Angiotensin-converting enzyme 2, ACE2 (h), sequence (Q9BYF1 18-805): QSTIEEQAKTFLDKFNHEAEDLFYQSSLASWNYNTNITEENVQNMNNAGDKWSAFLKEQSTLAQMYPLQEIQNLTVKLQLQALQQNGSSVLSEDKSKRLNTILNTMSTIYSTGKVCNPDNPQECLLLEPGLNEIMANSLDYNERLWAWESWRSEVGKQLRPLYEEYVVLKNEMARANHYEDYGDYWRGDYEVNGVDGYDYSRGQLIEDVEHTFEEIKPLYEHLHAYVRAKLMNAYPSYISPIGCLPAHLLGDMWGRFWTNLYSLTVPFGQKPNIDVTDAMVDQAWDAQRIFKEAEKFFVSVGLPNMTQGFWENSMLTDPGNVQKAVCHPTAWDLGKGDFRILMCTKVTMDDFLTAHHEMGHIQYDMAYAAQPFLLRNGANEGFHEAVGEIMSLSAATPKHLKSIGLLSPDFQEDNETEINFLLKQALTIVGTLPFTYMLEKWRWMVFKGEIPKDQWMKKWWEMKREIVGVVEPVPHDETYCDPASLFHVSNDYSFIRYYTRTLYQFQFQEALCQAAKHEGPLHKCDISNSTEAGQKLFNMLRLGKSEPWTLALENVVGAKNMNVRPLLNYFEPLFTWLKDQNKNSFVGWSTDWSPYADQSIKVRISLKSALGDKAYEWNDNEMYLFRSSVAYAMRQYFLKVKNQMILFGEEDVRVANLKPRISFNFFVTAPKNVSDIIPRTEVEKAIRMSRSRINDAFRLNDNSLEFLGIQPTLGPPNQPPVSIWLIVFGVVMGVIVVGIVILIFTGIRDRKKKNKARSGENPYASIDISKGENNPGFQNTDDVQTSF

[8] = tested on: Tubulin (r); assay: IPP Tubulin binding; parameters: species or system rat
[9] = tested on: MCF7 cells; assay: High-throughput transcriptomics (HTTr, TempO-Seq), MCF7, 24 h; format: cell-based, human; conditions: MCF-7; for pod_httr_bifrost PoD: HTTr BIFROST PoD; for podl_path_minbmd PoD: HTTr minimum pathway BMD(L)
Experimental: HepG2, HepaRG, and MCF7 cells were treated with each compound for 24 h across a dose range of 7 concentrations and lysed using TempO-Seq lysis buffer (BioSpyder Technologies, proprietary kit, see [Middleton et al. 2022] for method details). Sequencing was performed using TempO-Seq (BioClavis) version 2 of the human whole transcriptome panel and analyzed as described previously in Middleton et al.

[10] = target: T3, Endothelin-1 receptor, EDNRA (h) (Homo sapiens, UniProt P25101); conditions: control endothelin-1
T3 sequence (P25101 21-427): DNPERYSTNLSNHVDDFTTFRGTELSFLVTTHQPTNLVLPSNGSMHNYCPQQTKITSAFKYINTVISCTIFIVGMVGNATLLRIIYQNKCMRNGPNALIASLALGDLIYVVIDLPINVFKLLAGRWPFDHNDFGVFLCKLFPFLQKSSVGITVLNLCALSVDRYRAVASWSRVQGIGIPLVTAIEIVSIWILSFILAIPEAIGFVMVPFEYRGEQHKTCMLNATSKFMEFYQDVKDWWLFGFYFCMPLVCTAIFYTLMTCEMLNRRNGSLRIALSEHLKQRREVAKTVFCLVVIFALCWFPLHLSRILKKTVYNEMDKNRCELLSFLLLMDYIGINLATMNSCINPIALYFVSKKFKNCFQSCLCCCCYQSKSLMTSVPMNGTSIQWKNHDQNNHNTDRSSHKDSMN

[11] = target: T4, Alpha-2A adrenergic receptor, ADRA2A (h) (Homo sapiens, UniProt P08913); conditions: control yohimbine
T4 sequence (P08913 1-465): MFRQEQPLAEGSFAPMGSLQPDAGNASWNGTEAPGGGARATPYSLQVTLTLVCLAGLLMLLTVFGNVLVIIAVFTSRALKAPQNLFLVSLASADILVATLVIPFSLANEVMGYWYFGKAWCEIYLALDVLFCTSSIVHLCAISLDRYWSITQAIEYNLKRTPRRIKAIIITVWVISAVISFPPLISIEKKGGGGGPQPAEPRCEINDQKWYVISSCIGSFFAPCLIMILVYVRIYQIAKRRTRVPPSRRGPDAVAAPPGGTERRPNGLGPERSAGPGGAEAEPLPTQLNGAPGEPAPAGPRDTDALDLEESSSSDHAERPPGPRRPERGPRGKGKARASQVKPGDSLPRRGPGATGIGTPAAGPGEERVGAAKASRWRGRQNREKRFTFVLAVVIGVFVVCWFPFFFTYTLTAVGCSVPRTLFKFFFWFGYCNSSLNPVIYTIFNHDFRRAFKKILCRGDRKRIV

[12] = target: Sodium-dependent dopamine transporter, SLC6A3 (h) (Homo sapiens, UniProt Q01959); conditions: control BTCP
Sodium-dependent dopamine transporter, SLC6A3 (h), sequence (Q01959 whole entry): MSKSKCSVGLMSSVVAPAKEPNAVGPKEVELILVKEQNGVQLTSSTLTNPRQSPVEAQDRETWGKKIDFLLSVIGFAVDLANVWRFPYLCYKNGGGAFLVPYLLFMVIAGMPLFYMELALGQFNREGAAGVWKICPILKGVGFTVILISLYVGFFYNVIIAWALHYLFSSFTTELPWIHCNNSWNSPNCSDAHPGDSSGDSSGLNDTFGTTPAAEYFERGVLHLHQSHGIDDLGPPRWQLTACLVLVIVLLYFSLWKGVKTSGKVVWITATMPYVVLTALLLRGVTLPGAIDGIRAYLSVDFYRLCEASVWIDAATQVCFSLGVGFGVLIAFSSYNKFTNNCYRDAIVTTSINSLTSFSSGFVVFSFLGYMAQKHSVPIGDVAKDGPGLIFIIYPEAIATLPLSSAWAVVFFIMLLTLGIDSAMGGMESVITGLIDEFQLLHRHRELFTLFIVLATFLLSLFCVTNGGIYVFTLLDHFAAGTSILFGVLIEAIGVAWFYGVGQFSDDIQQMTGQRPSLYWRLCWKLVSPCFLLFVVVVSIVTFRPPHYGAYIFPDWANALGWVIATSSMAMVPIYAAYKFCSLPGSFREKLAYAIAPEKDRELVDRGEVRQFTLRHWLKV

[13] = target: Mu-type opioid receptor, OPRM1 (h) (Homo sapiens, UniProt P35372); conditions: control DAMGO
Mu-type opioid receptor, OPRM1 (h), sequence (P35372 whole entry): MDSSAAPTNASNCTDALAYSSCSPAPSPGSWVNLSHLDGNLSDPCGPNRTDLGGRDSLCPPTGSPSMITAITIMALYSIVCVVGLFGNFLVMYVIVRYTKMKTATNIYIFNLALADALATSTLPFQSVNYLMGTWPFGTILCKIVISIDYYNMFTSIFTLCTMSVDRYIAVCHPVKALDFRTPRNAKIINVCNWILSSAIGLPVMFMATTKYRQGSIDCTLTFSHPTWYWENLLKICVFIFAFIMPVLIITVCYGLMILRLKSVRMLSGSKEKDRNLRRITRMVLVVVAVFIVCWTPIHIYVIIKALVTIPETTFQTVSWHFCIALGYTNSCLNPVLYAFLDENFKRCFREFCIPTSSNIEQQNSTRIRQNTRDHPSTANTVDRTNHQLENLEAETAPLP

[14] = target: Delta-type opioid receptor, OPRD1 (h) (Homo sapiens, UniProt P41143); conditions: ligand/control DPDPE
Delta-type opioid receptor, OPRD1 (h), sequence (P41143 whole entry): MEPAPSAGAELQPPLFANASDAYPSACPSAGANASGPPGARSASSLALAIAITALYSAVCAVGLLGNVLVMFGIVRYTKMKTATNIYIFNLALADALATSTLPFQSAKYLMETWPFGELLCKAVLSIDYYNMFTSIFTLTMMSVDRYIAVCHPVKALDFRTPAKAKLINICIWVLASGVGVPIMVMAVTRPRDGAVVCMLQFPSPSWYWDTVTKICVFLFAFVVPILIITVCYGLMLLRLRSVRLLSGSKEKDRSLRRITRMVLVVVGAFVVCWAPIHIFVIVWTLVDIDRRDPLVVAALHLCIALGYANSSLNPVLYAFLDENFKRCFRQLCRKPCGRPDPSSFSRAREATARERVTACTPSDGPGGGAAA

[15] = 10 uM, ligand/control Colchicine

cGMP-inhibited 3',5'-cyclic phosphodiesterase A, PDE3A (h), sequence (Q14432 whole entry): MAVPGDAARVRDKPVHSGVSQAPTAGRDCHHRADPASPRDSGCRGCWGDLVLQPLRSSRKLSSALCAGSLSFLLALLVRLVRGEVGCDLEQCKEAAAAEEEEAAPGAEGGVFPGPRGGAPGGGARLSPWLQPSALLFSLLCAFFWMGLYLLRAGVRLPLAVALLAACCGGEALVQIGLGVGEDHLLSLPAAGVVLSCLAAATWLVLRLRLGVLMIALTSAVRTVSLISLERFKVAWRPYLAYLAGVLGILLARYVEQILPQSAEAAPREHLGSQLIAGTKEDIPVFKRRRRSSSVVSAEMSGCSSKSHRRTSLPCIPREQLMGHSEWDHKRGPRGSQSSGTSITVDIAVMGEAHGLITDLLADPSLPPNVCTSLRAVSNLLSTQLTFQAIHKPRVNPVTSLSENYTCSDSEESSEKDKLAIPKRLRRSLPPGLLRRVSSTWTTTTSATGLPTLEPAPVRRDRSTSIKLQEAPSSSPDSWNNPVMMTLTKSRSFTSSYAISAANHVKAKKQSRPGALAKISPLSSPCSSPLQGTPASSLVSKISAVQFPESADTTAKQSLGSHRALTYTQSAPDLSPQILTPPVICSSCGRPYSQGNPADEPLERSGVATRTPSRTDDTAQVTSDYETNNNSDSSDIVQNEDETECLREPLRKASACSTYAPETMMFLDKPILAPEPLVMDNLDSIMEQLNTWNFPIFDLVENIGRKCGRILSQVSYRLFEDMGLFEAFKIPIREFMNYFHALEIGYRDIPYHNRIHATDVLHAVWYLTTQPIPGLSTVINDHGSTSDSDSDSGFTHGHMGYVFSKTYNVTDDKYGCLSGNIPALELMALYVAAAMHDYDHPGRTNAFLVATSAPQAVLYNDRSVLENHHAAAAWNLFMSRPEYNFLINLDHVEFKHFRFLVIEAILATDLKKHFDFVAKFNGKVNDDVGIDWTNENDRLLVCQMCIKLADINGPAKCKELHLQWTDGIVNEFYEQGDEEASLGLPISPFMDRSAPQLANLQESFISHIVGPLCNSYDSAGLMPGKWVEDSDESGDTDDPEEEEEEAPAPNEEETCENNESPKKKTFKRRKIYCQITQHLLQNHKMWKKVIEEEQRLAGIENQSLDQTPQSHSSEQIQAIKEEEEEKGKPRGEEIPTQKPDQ

Compound	Enzymatic activity ([1]; IPP screening at 10 uM) [%]	Specific binding ([2]; IPP screening at 10 uM) [%]	Specific binding [3] [%]	Enzymatic activity [4] [%]	IPP screening %, Specific binding [5] [%]	IPP screening %, Coactivator recruitment ([6]; 10 uM) [%]	IPP screening %, Enzymatic activity [7] [%]	IPP screening %, Specific binding [8, 15] [%]	pod_httr_bifrost PoD [9] [µM]	podl_path_minbmd PoD [9] [µM]	Specific binding ([10]; IPP screening at 10 uM) [%]	Specific binding ([11]; IPP screening at 10 uM) [%]	Specific binding ([12]; IPP screening at 10 uM) [%]	Specific binding ([13]; IPP screening at 10 uM) [%]	IPP screening %, Specific binding ([14]; 10 uM) [%]	further results
CCOP(=S)(OCC)Oc1nc(Cl)c(Cl)cc1Cl [Chlorpyrifos, O,O-Diethyl O-(3,5,6-trichloropyridin-2-yl) phosphorothioate]	36.9	-62.6	16.0	-7.4	5.8	-1.0	-18.8	-20.0	0.08218	3.743	0.1	-3.7	34.7	29.9	2.5	
CC(C)(C)c1ccc(CCOc2ncnc3ccccc23)cc1 [Fenazaquin, 4-[2-(4-tert-Butylphenyl)ethoxy]quinazoline]	32.4	-38.6	26.8	3.3	11.5	-2.0	-29.1	-2.0	0.001313	0.3873	2.7	5.2	65.2	16.1	46.9	
CC1(C)O[C@@H]2[C@@H](CO[C@@]3(COS(N)(=O)=O)OC(C)(C)O[C@@H]23)O1 [Topiramate, [(3aS,5aR,8aR,8bS)-2,2,7,7-Tetramethyltetrahydro-2H,3aH,7H-bis[1,3]dioxolo[4,5-b:4',5'-d]pyran-3a-yl]methyl sulfamate (non-preferred name)]									22.6252	512.687						Enzymatic activity ([1]; IPP screening at 100 uM): 12%; Specific binding ([2]; IPP screening at 100 uM): -13.7%; IPP screening %, Coactivator recruitment ([6]; 100 uM, * denotes assay interference (2-Amino-6-chloro-4-nitrophenol, HC Red 3)): -1.0%; IPP screening %, Specific binding ([8]; 100 uM, ligand/control Colchicine): 5%; Specific binding ([10]; IPP screening at 100 uM): 5.1%; Specific binding ([11]; IPP screening at 100 uM): -5.6%; Specific binding ([12]; IPP screening at 100 uM): 0.1%; Specific binding ([13]; IPP screening at 100 uM): 0.9%; IPP screening %, Specific binding ([14]; 100 uM): 2.3%
(4S,4aR,5S,5aR,6S,12aS)-4-(Dimethylamino)-3,5,6,10,12,12a-hexahydroxy-6-methyl-1,11-dioxo-1,4,4a,5,5a,6,11,12a-octahydrotetracene-2-carboxamide--hydrogen chloride (1/1) [Oxytetracycline hydrochloride]	30.0	-18.3	4.9	-1.2			-18.6	-3.0			-1.2	-1.4	-0.9	3.3	-5.6	
mixture of 2- and 3-tert-butyl-4-methoxyphenol [Butylated Hydroxyanisole]	22.6	-2.5	-1.2	14.6	-7.7		-6.0				-10.4	1.5	20.6	7.1	-2.3	IPP screening %, Specific binding [8]: -5.0%
